Reference: patent US8450527B2, “Amine derivative compounds for treating ophthalmic diseases and disorders” (Acucela Inc., priority 2007, dated 2013)

Columns and labels:
visual cycle isomerase = target: T1, visual cycle isomerase (Bos taurus, UniProt Q28175); assay: In vitro isomerase inhibition assay, bovine RPE microsome membranes; assay type: biochemical; conditions: inhibition of 11-cis retinol formation; values given as ranges
T1 construct: Bovine Retinal Pigment Epithelium (RPE) microsome membranes were the source of a visual cycle isomerase; from tissue; host or cells: bovine retinal pigment epithelium microsome membranes; CRALBP made in E. coli
T1 sequence (Q28175 2-533 limits assumed): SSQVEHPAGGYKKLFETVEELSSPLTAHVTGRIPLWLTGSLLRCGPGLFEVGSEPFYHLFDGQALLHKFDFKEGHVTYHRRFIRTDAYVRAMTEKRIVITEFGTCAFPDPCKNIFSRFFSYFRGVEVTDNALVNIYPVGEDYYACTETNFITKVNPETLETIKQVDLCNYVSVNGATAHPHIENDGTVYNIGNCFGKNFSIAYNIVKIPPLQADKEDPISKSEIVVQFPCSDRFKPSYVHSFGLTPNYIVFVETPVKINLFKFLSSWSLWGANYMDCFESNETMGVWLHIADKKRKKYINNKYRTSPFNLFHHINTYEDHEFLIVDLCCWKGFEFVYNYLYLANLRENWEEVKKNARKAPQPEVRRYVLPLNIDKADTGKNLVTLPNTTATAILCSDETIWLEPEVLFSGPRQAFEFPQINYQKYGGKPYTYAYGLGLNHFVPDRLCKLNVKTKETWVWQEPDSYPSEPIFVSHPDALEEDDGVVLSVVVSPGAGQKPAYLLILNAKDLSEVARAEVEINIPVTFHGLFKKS
Procedure: The capability of amine derivative compounds to inhibit the activity of a visual cycle isomerase was determined
Isomerase inhibition reactions were performed essentially as described (Stecher et al., J. Biol. Chem. 274:8577-85 (1999); see also Golczak et al., Proc. Natl. Acad. Sci. USA 102:8162-67 (2005)). Bovine Retinal Pigment Epithelium (RPE) microsome membranes were the source of a visual cycle isomerase.
Bovine RPE microsome membrane extracts were prepared according to methods described (Golczak et al., Proc. Natl. Acad. Sci. USA 102:8162-67 (2005)) and stored at −80° C. Crude RPE microsome extracts were thawed in a 37° C. water bath, and then immediately placed on ice. 50 ml crude RPE microsomes were placed into a 50 ml Teflon-glass homogenizer (Fisher Scientific, catalog no. 0841416M) on ice, powered by a hand-held DeWalt drill, and homogenized ten times upand down on ice under maximum speed. This process was repeated until the crude RPE microsome solution was homogenized. The homogenate was then subjected to centrifugation (50.2 Ti rotor (Beckman, Fullerton, Calif.), 13,000 RPM; 15360 Rcf) for 15 minutes at 4° C. The supernatant was collected and subjected to centrifugation at 42,000 RPM (160,000 Rcf; 50.2 Ti rotor) for 1 hour at 4° C. The supernatant was removed, and the pellets were suspended in 12 ml (final volume) cold 10 mM MOPS buffer, pH 7.0. The resuspended RPE membranes in 5 ml aliquots were homogenized in a glass-to-glass homogenizer (Fisher Scientific, catalog no.K885500-0021) to high homogeneity. Protein concentration was quantified using the BCA protein assay according to the manufacturer's protocol (Pierce, Rockford, Ill.). The homogenized RPE preparations were stored at −80° C.
Recombinant human apo cellular retinaldehyde-binding protein (CRALBP) was cloned and expressed according to standard methods in the molecular biology art (see Crabb et al., Protein Science 7:746-57 (1998); Crabb et al., J. Biol. Chem. 263:18688-92 (1988)). Briefly, total RNA was prepared from confluent ARPE^19 cells (American Type Culture Collection, Manassas, Va.), cDNA was synthesized using an oligo(dT)12-18 primer, and then DNA encoding CRALBP was amplified by two sequential polymerase chain reactions (see Crabb et al., J. Biol. Chem. 263:18688-92 (1988); Intres, et al., J. Biol. Chem. 269:25411-18 (1994); GenBank Accession No. L34219.1). The PCR product was sub-cloned into pTrcHis2-TOPO TA vector according to the manufacturer's protocol (Invitrogen Inc., Carlsbad, Calif.; catalog no. K4400-01), and then the sequence was confirmed according to standard nucleotide sequencing techniques. Recombinant 6×His-tagged human CRALBP was expressed in One Shot TOP 10 chemically competent E. coli cells (Invitrogen), and the recombinant polypeptide was isolated from E. coli cell lysates by nickel affinity chromatography using nickel (Ni) Sepharose XK16-20 columns for HPLC (Amersham Bioscience, Pittsburgh, Pa.; catalog no.17-5268-O2). The purified 6×His-tagged human CRALBP was dialyzed against 10 mM bis-tris-Propane (BTP) and analyzed by SDS-PAGE. The molecular weight of the recombinant human CRALBP was approximately 39 kDal.
Amine derivative compounds and control compounds were reconstituted in ethanol to 0.1 M. Ten-fold serial dilutions (10^−2, 10^−3, 10^−4, 10^−5, 10^−6 M) in ethanol of each compound were prepared for analysis in the isomerase assay.
The isomerase assay was performed in 10 mM bis-tris-propane (BTP) buffer, pH 7.5, 0.5% BSA (diluted in BTP buffer), 1 mM sodium pyrophosphate, 20 μM all-trans retinol (in ethanol), and 6 μM apo-CRALBP. The test compounds (2 μl) (final 1/15 dilution of serial dilution stocks) were added to the above reaction mixture to which RPE microsomes were added. The same volume of ethanol was added to the control reaction (absence of test compound). Bovine RPE microsomes (9 μl) (see above) were then added, and the mixtures transferred to 37° C. to initiate the reaction (total volume=150 μl). […]

isomerase = target: T2, isomerase (Mus musculus, UniProt Q91ZQ5); assay: In vivo murine isomerase assay (recovery of 11-cis-retinal after photobleaching); design: species or system CD-1 (albino) male mice; conditions: CD1 male mice, single oral dose 1 mg/kg, photobleaching 4 h post dosing
T2 construct: The recovery of 11-cis-retinal after bleaching can be used to estimate the activity of isomerase in vivo; from tissue; host or cells: eye (RPE) of living CD-1 albino male mice
T2 sequence (Q91ZQ5 1-533): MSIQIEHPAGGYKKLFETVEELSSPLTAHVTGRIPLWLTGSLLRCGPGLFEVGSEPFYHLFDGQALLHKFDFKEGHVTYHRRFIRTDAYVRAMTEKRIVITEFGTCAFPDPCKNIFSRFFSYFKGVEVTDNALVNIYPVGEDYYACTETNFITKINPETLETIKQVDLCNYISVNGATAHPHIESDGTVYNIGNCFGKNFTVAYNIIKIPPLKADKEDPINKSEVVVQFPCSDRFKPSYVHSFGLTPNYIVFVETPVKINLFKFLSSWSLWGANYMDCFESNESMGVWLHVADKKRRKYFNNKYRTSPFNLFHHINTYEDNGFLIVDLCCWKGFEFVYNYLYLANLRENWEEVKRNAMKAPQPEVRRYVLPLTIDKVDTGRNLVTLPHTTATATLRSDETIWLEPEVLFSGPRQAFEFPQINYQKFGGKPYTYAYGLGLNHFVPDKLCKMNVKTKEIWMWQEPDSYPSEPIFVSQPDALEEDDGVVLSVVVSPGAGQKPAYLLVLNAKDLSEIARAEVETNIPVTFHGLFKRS
Procedure: The capability of amine derivative compounds to inhibit isomerase was determined by an in vivo murine isomerase assay. Brief exposure of the eye to intense light (“photobleaching” of the visual pigment or simply “bleaching”) is known to photo-isomerize almost all 11-cis-retinal in the retina. The recovery of 11-cis-retinal after bleaching can be used to estimate the activity of isomerase in vivo.
Delayed recovery, as represented by lower 11-cis-retinal oxime levels, indicates inhibition of isomerization reaction. Procedures were performed essentially as described by Golczak et al., Proc. Natl. Acad. Sci. USA 102:8162-67 (2005). See also Deigner et al., Science, 244: 968-71 (1989); Gollapalli et al., Biochim Biophys Acta. 1651: 93-101 (2003); Parish, et al., Proc. Natl. Acad. Sci. USA, 14609-13 (1998); Radu, et al., Proc Natl Acad Sci USA 101: 5928-33 (2004).
[…] Mice were orally gavaged with the several of the amine derivative compounds described herein. After 1-48 hours in the dark, the mice were exposed to photobleaching of 5,000 lux of white light for 10 minutes. The mice were allowed to recover 2 hours in the dark. The animals were then sacrificed by carbon dioxide inhalation. Retinoids were extracted from the eye and the regeneration of 11-cis-retinal was assessed at various time intervals.
All steps were performed in darkness with minimal redlight illumination (low light darkroom lights and redfiltered flashlights for spot illumination as needed) (see, e.g., Maeda et al., J. Neurochem 85:944-956, 2003; Van Hooser et al., J Biol Chem 277:19173-82, 2002). After the mice were sacrificed, the eyes were immediately removed and placed in liquid nitrogen for storage.
The eyes were placed in 500 μL of bis-tris propane buffer (10 mM, pH ˜7.3) and 20 μL of 0.8M hydroxylamine (pH˜7.3). The eyes were cut up into small pieces with small iris scissors and then thoroughly homogenized at 30000 rpm with a mechanical homogenizer (Polytron PT 1300 D) in the tube until no visible tissue remained. 500 μL of methanol and 500 μL of heptane were added to each tube. The tubes were attached to a vortexer so that the contents were mixed thoroughly for 15 minutes in room temperature. The organic phase was separated from the aqueous phase by centrifugation for 10 min at 13K rpm, 4° C. 240 μL of the solution from the top layer (organic phase) was removed and transferred to clean 300 μl glass inserts in HPLC vials using glass pipette and the vials were crimped shut tightly.
The samples were analyzed on an Agilent 1100 HPLC system with normal phase column: SILICA (Beckman Coutlier, dp 5 μm, […]). The running method has a flow rate of 1.5 ml/min; solvent components are 15% solvent 1 (1% isopropanol in ethyl acetate), and 85% solvent 2 (100% hexanes). Loading volume for each sample is 100 μl; detection wavelength is 360 nm. The area under the curve for 11-cis retinal oxime was calculated by Agilent Chemstation software and was recorded manually. Data processing was performed using Prizm software.
Positive control mice (no compound administered) were sacrificed fully dark-adapted and the eye retinoids analyzed. Light (bleached) control mice (no compound administered) were sacrificed and retinoids isolated and analyzed immediately after light treatment. The animals were orally gavaged with 1 mg/kg compound, then “photo-bleached” (5000 Lux white light for 10 minutes) at 4, 24 and 48 hours after dosing, and returned to darkness to allow recovery of the 11-cis-retinal content of the eyes. Mice were sacrificed 2 hours after bleaching, eyes were enucleated, and retinoid content was analyzed by HPLC.
A dose response in vivo isomerase inhibition study was performed with several of the amine derivative compounds described herein. Six-week old dark-adapted CD-1 (albino) male mice were orally gavaged with 0.03, 0.1, 0.3, 1 and 3 mg/kg of compound in sterile water as solution, and photobleached 4 hours after dosing. […]

Row | SMILES | IC50 (visual cycle isomerase) | % Inhibition 1 mg/kg 4 h (isomerase)
1 | Cc1cccc(C)c1CCc1cccc(CCCN)c1 [Example 1, 3-(3-(2,6-dimethylphenethyl)phenyl)propan-1-amine] | 1 to 10 µM | –
2 | NCCC(O)c1cccc(CCCCCCO)c1 (stereo not shown) [Example 59, 6-(3-(3-amino-1-hydroxypropyl)phenyl)hexan-1-ol] | – | 14%
3 | CCCC(O)(CCC)CCc1cccc([C@@H](O)CCN)c1 [Example 70, (S)-4-(3-(3-amino-1-hydroxypropyl)phenethyl)heptan-4-ol] | – | 100%
4 | CCCC(O)(CCC)CCc1cccc([C@H](O)CCN)c1 [Example 71, (R)-4-(3-(3-Amino-1-hydroxypropyl)phenethyl)heptan-4-ol] | – | 67%
5 | NCCC(O)c1cccc(CCc2ccccc2)c1 (stereo not shown) [Example 85, 3-amino-1-(3-phenethylphenyl)propan-1-ol] | – | 70%
6 | CC(C)CCCc1cccc(C(O)CCN)c1 (stereo not shown) [Example 90, 3-amino-1-(3-(4-methylpentyl)phenyl)propan-1-ol] | – | 84%
7 | NCCOc1cccc(CCC2CCCCC2O)c1 (stereo not shown) [Example 99, 2-(3-(2-aminoethoxy)phenethyl)cyclohexanol] | – | 22%
8 | NCCC(O)c1cccc(CCC2CCCCC2O)c1 (stereo not shown) [Example 100, 2-(3-(3-amino-1-hydroxypropyl)phenethyl)cyclohexanol] | – | 9%
9 | CCCC(C)(O)CCc1cccc(C(O)CCN)c1 (stereo not shown) [Example 109, 1-(3-(3-amino-1-hydroxypropyl)phenyl)-3-methylhexan-3-ol] | – | 79%
10 | NCCC(O)c1cccc(CCC2CCCCO2)c1 (stereo not shown) [Example 110, 3-amino-1-(3-(2-(tetrahydro-2H-pyran-2-yl)ethyl)phenyl)propan-1-ol] | – | 61%
11 | CCC(O)(CC)CCc1cccc(C(O)CCN)c1 (stereo not shown) [Example 113, 1-(3-(3-amino-1-hydroxypropyl)phenyl)-3-ethylpentan-3-ol] | – | 87%
12 | CCCC(O)(CCC)CCc1cccc(SCCN)c1 [Example 134, 4-(3-(2-aminoethylthio)phenethyl)heptan-4-ol] | – | 6%
13 | CCCC(O)(CCC)CCc1cc(C(O)CCN)ccc1F (stereo not shown) [Example 140, 4-(5-(3-amino-1-hydroxypropyl)-2-fluorophenethyl)heptan-4-ol] | – | 87%
14 | NCC#Cc1cccc(CS(=O)(=O)C2CCCCC2)c1 [Example 157, 3-(3-(cyclohexylsulfonylmethyl)phenyl)prop-2-yn-1-amine] | – | 0%
15 | NCCOc1cccc(C(=O)NC2CCCCC2)c1 [Example 164, 3-(2-aminoethoxy)-N-cyclohexylbenzamide] | – | 0%
16 | NCCCc1cccc(CCC2CCCCC2O)c1 (stereo not shown) [Example 187, 2-(3-(3-aminopropyl)phenethyl)cyclohexanol] | – | 9%
